Experiments:
[1] = system: C33A cervical carcinoma cells; experiment: caspase activation in lysates of treated cells (apoptosis); format: cell-based; conditions: C33A cancer cell line; 16 hr incubation; positive = 1.5-fold (150%) of dimethyl sulfoxide control
Procedure: (§1) H1299 non-small cell lung carcinoma cells, C33A cervical carcinoma cells, Mrc-5 normal lung fibroblasts (American Type Culture Collection, Manassas, Va. USA) and HMEC normal mammary epithelial cells (Clonetics San Diego, Calif., USA) were maintained in media recommended by the American Type Culture Collection. Cells were harvested and suspended at 2.5–5×10^5 cells/ml in media. A 45 μL aliquot of cell suspension was added to each well of a 96-well microtiter plate (PerkinElmer Life Sciences Inc, Boston, Mass. USA). Cells were incubated overnight in a 5% CO2-95% humidity incubator at 37° C. and then, 5 μL of a 10% dimethyl sulfoxide (Sigma-Aldrich Inc., St. Louis, Mo. USA) solution containing various concentrations of Compound 79 or 5 μL of 10% dimethyl sulfoxide (solvent control) were added. The plates were further incubated for 16 hr. […]
(§2) The reaction was then filtered using Sephadex G-10 Poly-Prep chromatography column (Amersham Biosciences, Inc, Piscataway, N.J., USA). […] The number of radioactive counts per minute (cpm) in each well of the sample plate was measured using a liquid scintillation counter (PerkinElmer Life Sciences Inc, Boston, Mass. USA). The potency of caspase cascade activation was determined by the percentage increase in cpm in wells compared to cells treated only with dimethyl sulfoxide.

[2] = system: H1299 non-small cell lung carcinoma cells; experiment: as above; format: cell-based; conditions: H1299 cancer cell line; 16 hr incubation; positive = 1.5-fold (150%) of dimethyl sulfoxide control
Procedure: as §1, §2

COC1=CC(c2ccc[nH]2)=N/C1=C/c1cc2ccccc2[nH]1 [Compound 79, 4-methoxy-5-(1H-indol-2yl-methylene)-2,2′-bi-1H-pyrrole]
Concentration Required for Positive Caspase Activation [1]: 125 µM
Concentration Required for Positive Caspase Activation [2]: 250 µM

— US7144912B2, “Pyrrole-type compounds, compositions, and methods for treating cancer, treating viral diseases and causing immunosuppression” (Gemin X Biotechnologies Inc., priority 2001, dated 2006)
